Measurements taken from US12453709B2, “Compositions and methods for treating autism” (priority 2013, dated 2025).

Test system: symptoms of leaky gut
Test: Preliminary testing: effect on symptoms of leaky gut
Assay type: in vivo
Excerpt: This may be due to the failure of the D amino acid isomer to be transported by the different L amino acid transport systems that exist within the body, or by completion for renal excretion that allows the L isomer to persist for a longer duration.

Which results are given for `C[C@](N)(Cc1ccc(O)cc1)C(=O)O` (single isomer, unassigned) [Demser, α-methyl-L-tyrosine]?
duration of effect on leaky gut symptoms: short lived; effect on the symptoms of leaky gut: beneficial effect
